Assay results taken from patent US20150368620A1, “METHOD OF DETACHING ADHERENT CELLS FOR FLOW CYTOMETRY” (KING ABDULLAH UNIVERSITY OF SCIENCE AND TECHNOLOGY, priority 2013, published 2015).

How the values were obtained:
MCF-7 cells [1] = experiment: Mitochondrial membrane potential (MMP) JC-1 assay by flow cytometry; type: cell-based; settings: 2 μM JC-1, 100 mM H2O2 positive control, Accuri C6 HTFC, 96-well
Method: (§1) The following can be the steps used to determining MMP by Flow Cytometry in adherent cells. […] Add 15 μl of serum free media containing JC-1 dye so that the final concentration is 2 μM in a total volume of 77 μl and incubate for 1-2 h at 37° C. […] 100 mM H2O2 can be used as a positive control.
In FIG. […] Data was analyzed using FlowJo version 7.6.5 software. Cells were seeded at a density of 5×10^3 cells per well in a 96-well plate, the following day cells were left untreated (red) or treated with 100 mM H2O2 as a positive control (blue) for MMP disruption. DU145 cells were stained with a final concentration of 2 μM JC-1 dye (representative image). Cells were lifted with EDTA and analyzed by flow cytometry.

MCF-7 cells [2] = experiment: Reactive oxygen species (ROS) DCFDA assay by flow cytometry; type: cell-based; settings: 10 μM DCFDA, 2-10 mM H2O2 positive control, Accuri C6 HTFC, 96-well
Method: (§2) Add 15 μl of serum free media and incubate for 5-10 min.
In FIGS. […] Data was analyzed using FlowJo version 7.6.5 software. Cells were seeded at a density of 5×10^3 cells per well in a 96-well plate, the following day cells were left untreated (blue peak) or treated with 10 mM H2O2 as a positive control (red peak) for ROS. MCF-7 and HeLa cells were stained with a final concentration of 10 μM DCFDA dye immediately after adding H2O2 (A and B). Cells were lifted with EDTA and analyzed by flow cytometry.

HeLa cells [3] = experiment: Mitochondrial membrane potential (MMP) JC-1 assay by flow cytometry; type: cell-based; settings: 2 μM JC-1, 100 mM H2O2 positive control, Accuri C6 HTFC, 96-well
Method: as §1

HeLa cells [4] = experiment: APOPercentage apoptosis assay by flow cytometry; type: cell-based; settings: APOPercentage dye, 2.5 mM H2O2 positive control, Accuri C6 HTFC, 96-well
Method: (§3) The HTFC system was used.
(§4) Untreated and treated HeLa cells were also analyzed by flow cytometry on an Accuri C6 flow cytometer to determine the percentage of cells undergoing apoptosis (FIG. 4). Cells were seeded at a density of 5×10^3 cells per well in 96 well plate. Cells treated with 2.5 mM H2O2 for 30 minutes or 62 μl EDTA pH 6.14 for 15-30 min. added to cells after removing media were used as a positive control for apoptosis. Cells were lifted and stained with 10 APOPercentage dye. The cells were then analyzed by flow cytometry. […] FIG. 4C is a bar graph showing the percentage of non-apoptotic and apoptotic cells within the untreated or treated population of cells.
(§5) Add 15 μl of serum free media containing 1 μl APOPercentage dye and incubate for 15-20 min at 37° C. […] 2.5 mM H2O2 is used as a positive control.
Cells were seeded at a density of 5×10^3 cells per well in a 96-well plate. Following day, cells were treated with 2.5 mM H2O2 for 30 min. or 62 μl EDTA pH 6.14 for 15-30 min. added to cells after removing media as a positive control for apoptosis for 15-30 min. Cells were lifted with EDTA and stained with […] and analyzed by flow cytometry. […] 1D Histogram of untreated (blue) and treated (red) cells measuring fluorescence in the FL2-H channel and applying gates to delineate Non-apoptotic (blue) and Apoptotic (red) cells (FIG. 5B). […]

MCF-7 cells [5] = experiment: APOPercentage apoptosis assay by flow cytometry; type: cell-based; settings: APOPercentage dye, 2.5 mM H2O2 positive control, Accuri C6 HTFC, 96-well
Method: as §3
as §4, with “treated MCF-7” for “treated HeLa”, “were” for “were also”, “(FIG. 3).” for “(FIG. 4).”, “apoptosis. The cells” for “apoptosis. Cells”, “with 1 μl” for “with 10”, “FIG. 3C” for “FIG. 4C”
as §5
In FIG. 6, MCF-7 Cells untreated (blue, left) or treated (red, right) were analyzed by flow cytometry on a BD LSRFortessa HTS flow cytometer to determine the percentage of cells undergoing apoptosis. Data was analyzed using FlowJo version 7.6.5 software. […] Cells were lifted with EDTA and stained with 1 μl APOPercentage and analyzed by flow cytometry. 1D Histogram of untreated (blue) and treated (red) cells measuring fluorescence in the PE-A channel and applying gates to delineate Non-apoptotic (blue) and Apoptotic (red) cells.

HeLa cells [6] = experiment: Reactive oxygen species (ROS) DCFDA assay by flow cytometry; type: cell-based; settings: 10 μM DCFDA, 10 mM H2O2 positive control, Accuri C6 HTFC, 96-well
Method: as §2
In FIG. 9, HeLa and MCF-7 Cells were analyzed by flow cytometry on an Accuri C6 to determine the level of ROS in cells. Cells were seeded at a density of 5×10^3 cells per well in a 96-well plate, the following day cells were treated with 10 mM H2O2 as a positive control for ROS and test compounds. HeLa cells were stained with a final concentration of 10 μM DCFDA dye immediately after adding H2O2 (A). After incubation cells were lifted with EDTA and analyzed by flow cytometry. Separation of untreated (yellow) and treated (purple) cells based on FL-1-H profile (A). MCF-7 cells were treated with Plumbagin and its derivative Crotonate Plumbagin for 1 h (B). A final 10 μM DCFDA was added simultaneously with Plumbagin and its derivative to cells. Following incubation with drug cells were lifted with EDTA and analyzed by flow cytometry.
In FIGS. 10A-B, MCF-7 and HeLa Cells were analyzed by flow cytometry on a BD LSRFortessa HTS to determine the level of ROS in cells. Data was analyzed using FlowJo version 7.6.5 software. Cells were seeded at a density of 5×10^3 cells per well in a 96-well plate, the following day cells were left untreated (blue peak) or treated with 10 mM H2O2 as a positive control (red peak) for ROS. […] Cells were lifted with EDTA and analyzed by flow cytometry.

BT20 cells [7] = experiment: as above; type: cell-based; settings: 10 μM DCFDA, 2-10 mM H2O2 positive control, Accuri C6 HTFC, 96-well
Method: as §2

DU145 cells [8] = experiment: Mitochondrial membrane potential (MMP) JC-1 assay by flow cytometry; type: cell-based; settings: 2 μM JC-1, 100 mM H2O2 positive control, Accuri C6 HTFC, 96-well
Method: as §1
In FIGS. 7A-B, DU145 Cells unstained (blue), untreated (red) or treated (green) were analyzed by flow cytometry on an Accuri C6 to determine the percentage of cells with disrupted MMP. Cells were seeded at a density of 5×10^3 cells per well in 96-well plate. Following day media was removed from cells and replaced with 50 μl EDTA as a positive control for MMP disruption for 60 min. Cells were lifted with EDTA and stained with a final concentration of 2 μM JC-1 dye and analyzed by flow cytometry. Separation of unstained (blue), untreated (red) and treated (green) cells based on FL2-H and FL-1-H profile (A). 1D Histogram of unstained (blue), untreated (red) and treated (green) cells measuring fluorescence in the FL2-H channel (B).
In FIG. 8, DU145 and MCF-7 Cells were analyzed by flow cytometry on a BD LSRFortessa HTS to determine the level of MMP in cells. Data was analyzed using FlowJo version 7.6.5 software. […] Cells were lifted with EDTA and analyzed by flow cytometry.

HT1080 cells [9] = experiment: APOPercentage apoptosis assay by flow cytometry; type: cell-based; settings: APOPercentage dye, 2.5 mM H2O2 positive control, Accuri C6 HTFC, 96-well
Method: (§6) In one method, five thousand cells were plated per well in 45 μl of media in 96-well plate. The cells were shaken at 750 rpm with an Orbital shaker for 20 seconds and allowed to settle for 16-24 hrs in 5% CO2 incubator at 37° C. A desired concentration of drug was added to cells in a volume of […] to make the final volume per well up to 50 μl. The cells and drug were mixed at 750 rpm with an Orbital shaker for 20 seconds and incubated again for desired period of time. Twelve microliters of 15 mM EDTA pH 6.14 (upto 20 mM can be added depending on the cell line) were added per well, mixed at 750 rpm with an Orbital shaker for 20 seconds and incubated at 37° C. for 45 min to 1 hour (until cells lift). Fifteen microliters of media containing 1 μl APOPercentage dye was added to the cells and incubated for 15-20 min at 37° C. The cells were analyzed on flow cytometer setting a threshold for FSC-H of 80,000, cytometer speed at medium (2 μl/sec), peristaltic pump speed at 23 rpm, shaking on 1800 rpm, gating on 2D plot of FSC vs SSC and a 1D plot measuring FL2-H/FL3-H on the X axis. The HTFC system was used.
(§7) The following steps can be used to measure apoptosis using APOPercentage Assay in adherent cells. 5000 cells per well were plated in 45 μl of media in 96-well plate, shaken at 750 rpm with an Orbital shaker for 20 seconds, and allowed to settle 16-24 hours (h). […]

DU145 cells [10] = experiment: APOPercentage apoptosis assay by flow cytometry; type: cell-based; settings: APOPercentage dye, 2.5 mM H2O2 positive control, Accuri C6 HTFC, 96-well
Method: as §6, §7

BJ fibroblast cells = experiment: APOPercentage apoptosis assay by flow cytometry; type: cell-based; settings: APOPercentage dye, 2.5 mM H2O2 positive control, Accuri C6 HTFC, 96-well
Method: as §3
BJ fibroblast cells were analyzed by flow cytometry on an Accuri C6 flow cytometer to determine the percentage of cells undergoing apoptosis (FIG. 2). Cells were seeded at a density of 5×10^3 cells per well in 96 well plate. Cells exposed to 2.5 mM H2O2 for 30 minutes or 62 μl EDTA pH 6.14 for 15-30 min. added to cells after removing media were used as a positive control for apoptosis. Cells were lifted and stained with 1 μl APOPercentage dye. The cells were then analyzed by flow cytometry. […] FIG. 2B includes a 1D Histogram of untreated and treated cells showing the fluorescence measured in the FL2-H channel, where gates were applied to delineate non-apoptotic and apoptotic cells. FIG. 2C is a bar graph showing the percentage of non-apoptotic and apoptotic cells that was measured within the untreated or treated (positive control) population of cells.
as §5

BJ, MCF-7 and HeLa cells = settings: untreated cells lifted with EDTA, APOPercentage staining
Method: as §6

BT20 cells [11] = settings: 12 μl of 15 mM EDTA pH 6.14 added to media, 37° C., 96-well
Method: 5000 cells per well were plated in 45 μl of media in 96-well plate, shaken at 750 rpm with an Orbital shaker for 20 seconds, and allowed to settle 16-24 hours (h). Desired concentration of drug was added to cells in a volume of […] to make the final volume per well up to 50 μl, was shaken at 750 rpm with an Orbital shaker for 20 seconds, and was then incubated for desired period of time. […] Shake at 750 rpm with an Orbital shaker for 20 seconds and incubate at 37° C. for 15 minutes (min) to 1 h (until cells lift).

HT1080 cells [12] = settings: 12 μl of 15 mM EDTA pH 6.14 added to media, 37° C., 96-well
Method: as §6
(§8) The following steps can be used to measure apoptosis using APOPercentage Assay in adherent cells. 5000 cells per well were plated in 45 μl of media in 96-well plate, shaken at 750 rpm with an Orbital shaker for 20 seconds, and allowed to settle 16-24 hours (h). Desired concentration of drug was added to cells in a volume of […] to make the final volume per well up to 50 μl, was shaken at 750 rpm with an Orbital shaker for 20 seconds, and was then incubated for desired period of time. 12 μl of 15 mM EDTA pH 6.14 per well was added (upto 20 mM can be added depending on the cell line). Shake at 750 rpm with an Orbital shaker for 20 seconds and incubate at 37° C. for 15 minutes (min) to 1 h (until cells lift).

MCF-7 cells [13] = settings: 12 μl of 15 mM EDTA pH 6.14 added to media, 37° C., 96-well
Method: as §6, §8

HeLa cells [14] = settings: 12 μl of 15 mM EDTA pH 6.14 added to media, 37° C., 96-well
Method: as §6, §8

BJ cells = settings: 12 μl of 15 mM EDTA pH 6.14 added to media, 37° C., 96-well
Method: as §6, §8

DU145 cells [15] = settings: 12 μl of 15 mM EDTA pH 6.14 added to media, 37° C., 96-well
Method: as §6, §8

| Compound | Percent cells having JC-1 green in treated positive control (MCF-7 cells [1]) [%] | Percent cells stained with DCFDA in treated positive control (MCF-7 cells [2]) [%] | Percent cells having JC-1 green in treated positive control (HeLa cells [3]) [%] | Percent cells stained in positive control (HeLa cells [4]) [%] | Percent cells stained in positive control (MCF-7 cells [5]) [%] | Percent cells stained with DCFDA in treated positive control (HeLa cells [6]) [%] | Percent cells stained with DCFDA in treated positive control (BT20 cells [7]) [%] | Percent cells having JC-1 green in treated positive control (DU145 cells [8]) [%] | Percent cells stained in positive control (HT1080 cells [9]) [%] | Percent cells stained in positive control (DU145 cells [10]) [%] | Percent cells stained in positive control (BJ fibroblast cells) [%] | effect of cell lifting chemical on untreated cells (membrane, apoptosis) (BJ, MCF-7 and HeLa cells) | Time to lift with EDTA (BT20 cells [11]) [min] | Time to lift with EDTA (HT1080 cells [12]) [min] | Time to lift with EDTA (MCF-7 cells [13]) [min] | Time to lift with EDTA (HeLa cells [14]) [min] | Time to lift with EDTA (BJ cells) [min] | Time to lift with EDTA (DU145 cells [15]) [min] |
| --- | --- | --- | --- | --- | --- | --- | --- | --- | --- | --- | --- | --- | --- | --- | --- | --- | --- | --- |
| OO [H2O2] | 95 | 90 | 90 | 90 | 85 | 90 | 95 | 90 | 95 | 90 | 90 | – | – | – | – | – | – | – |
| O=C(O)CN(CCN(CC(=O)O)CC(=O)O)CC(=O)O [EDTA, ethylenediaminetetraacetic acid] | – | – | – | – | – | – | – | – | – | – | – | did not induce unwanted apoptosis in untreated cells | 40 to 60 | 20 to 30 | 15 to 20 | 30 to 45 | 30 to 50 | 20 to 30 |
